Experimental data taken from patent US7994140B2, “Classes of compounds that interact with GPCRs” (Alchemia Limited, priority 2002, dated 2011).

How the values were obtained:
MC4 = target: T1, MC4 (Homo sapiens, UniProt P32245); experiment: GPCR radioligand binding (RLB) assay, melanocortin MC4, [125I]NDP-αMSH
T1 construct: purchased Perkin Elmer BioSignal; host or cells: HEK 293
How it was run: (§1)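 Membranes from HEK 293 cells expressing the recombinant human receptor were equilibrated with [125I]SST-14 (SST5) or [125I]NDP-αMSH (MC4), then compound added for an optimized incubation. Bound ligand separated by filtration on PEI-coated glass fiber and counted by liquid scintillation.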

SST5 = target: T2, SST5 (Homo sapiens, UniProt P35346); experiment: GPCR radioligand binding (RLB) assay, somatostatin SST5, [125I]SST-14; settings: for SST5 inhibition at 10 micromolar: recombinant human receptor membranes (HEK 293)
T2 construct: purchased Perkin Elmer BioSignal; host or cells: HEK 293
How it was run: as §1

[1] = 10 micromolar, Example Library 4
[2] = 10 micromolar compound, recombinant human receptor membranes (HEK 293)

T1 sequence (P32245 whole entry): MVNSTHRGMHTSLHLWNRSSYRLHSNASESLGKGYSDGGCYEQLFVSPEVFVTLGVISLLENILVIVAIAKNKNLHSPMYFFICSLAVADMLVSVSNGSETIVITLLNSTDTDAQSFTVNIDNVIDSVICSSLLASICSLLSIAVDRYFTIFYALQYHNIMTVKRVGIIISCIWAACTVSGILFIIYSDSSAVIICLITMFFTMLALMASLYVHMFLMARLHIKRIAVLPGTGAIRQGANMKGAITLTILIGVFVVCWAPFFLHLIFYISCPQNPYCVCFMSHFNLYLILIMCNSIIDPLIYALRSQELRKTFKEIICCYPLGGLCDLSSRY
T2 sequence (P35346 whole entry): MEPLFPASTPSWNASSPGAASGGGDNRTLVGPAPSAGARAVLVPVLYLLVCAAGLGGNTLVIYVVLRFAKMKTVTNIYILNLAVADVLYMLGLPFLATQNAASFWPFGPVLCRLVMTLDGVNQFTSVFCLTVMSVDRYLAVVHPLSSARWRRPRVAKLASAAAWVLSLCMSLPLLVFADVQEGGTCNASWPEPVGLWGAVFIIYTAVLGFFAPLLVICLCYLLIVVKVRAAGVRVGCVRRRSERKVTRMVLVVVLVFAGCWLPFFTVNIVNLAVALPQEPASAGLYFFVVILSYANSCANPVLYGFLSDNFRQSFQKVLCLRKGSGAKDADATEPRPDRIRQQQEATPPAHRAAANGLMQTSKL

Row | SMILES | MC4 inhibition at 10 micromolar (MC4; [1]) | SSTS inhibition at 10 micromolar (SST5; [1]) | MC4 inhibition at 10 micromolar (MC4; [2]) | SST5 inhibition at 10 micromolar (SST5; 10 micromolar compound) | SSTS inhibition at 10 micromolar (SST5; 10 micromolar compound, Example Library 8)
1 | COCC1OC(OCc2ccccc2)C(NC(=O)CNC(=N)N)C(OCc2ccc3ccccc3c2)C1O (centres unmarked) [Compound 232] | + (Indicates inhibition greater than . . . 50%) | + (Indicates inhibition greater than . . . 50%) | – | – | –
2 | COCC1OC(OCc2ccccc2)C(NC(=O)CCNC(=N)N)C(OCc2ccc3ccccc3c2)C1O (centres unmarked) [Compound 234] | + (Indicates inhibition greater than . . . 50%) | + (Indicates inhibition greater than . . . 50%) | – | – | –
3 | COCC1OC(OCc2ccccc2)C(NC(=O)CN)C(OCc2ccc(Cl)cc2)C1O (centres unmarked) [Compound 219] | + (Indicates inhibition greater than . . . 50%) | + (Indicates inhibition greater than . . . 50%) | – | – | –
4 | CSC1OC(COCc2ccc(-c3ccccc3)cc2)C(O)C(OCc2ccc3ccccc3c2)C1NC(=O)CN (centres unmarked) [Compound 203] | – | – | + (Indicates inhibition greater than . . . 50%) | + (Indicates inhibition greater than . . . 50%) | –
5 | CSC1OC(COCc2ccc(Cl)cc2)C(O)C(OCc2ccc(Cl)cc2)C1NC(=O)CNC(=N)N (centres unmarked) [Compound 150] | – | – | + (Indicates inhibition greater than . . . 50%) | + (Indicates inhibition greater than . . . 50%) | –
6 | COCC1OC(OCc2ccc(Cl)cc2)C(NC(=O)CNC(=N)N)C(OCc2ccc3ccccc3c2)C1O (centres unmarked) [Compound 255] | + (Indicates inhibition greater than . . . 50%) | + (Indicates inhibition greater than . . . 50%) | – | – | –
7 | CSC1OC(COCc2ccc(-c3ccccc3)cc2)C(O)C(OCc2ccc3ccccc3c2)C1NC(=O)CCCNC(=N)N (centres unmarked) [Compound 208] | – | – | + (Indicates inhibition greater than . . . 50%) | + (Indicates inhibition greater than . . . 50%) | –
8 | COC[C@H]1OC(OCc2ccc(-c3ccccc3)cc2)[C@H](NC(=O)CCCNC(=N)N)[C@@H](OCc2ccc(Cl)cc2)[C@@H]1O (some centres unmarked) [Compound 34] | – | – | + (Indicates inhibition greater than . . . 50%) | + (Indicates inhibition greater than . . . 50%) | –
9 | COCC1OC(OCc2ccc(Cl)cc2)C(NC(=O)CCNC(=N)N)C(OCc2ccc(Cl)cc2)C1O (centres unmarked) [Compound 245] | + (Indicates inhibition greater than . . . 50%) | + (Indicates inhibition greater than . . . 50%) | – | – | –
10 | CSC1OC(COCc2ccc(-c3ccccc3)cc2)C(O)C(OCc2ccc3ccccc3c2)C1NC(=O)CCN (centres unmarked) [Compound 205] | – | – | + (Indicates inhibition greater than . . . 50%) | + (Indicates inhibition greater than . . . 50%) | –
11 | COCC1OC(OCc2ccccc2)C(NC(=O)CCN)C(OCc2ccc3ccccc3c2)C1O (centres unmarked) [Compound 233] | + (Indicates inhibition greater than . . . 50%) | + (Indicates inhibition greater than . . . 50%) | – | – | –
12 | CSC1OC(COCc2ccc(Cl)cc2)C(O)C(OCc2ccccc2)C1NC(=O)CCCNC(=N)N (centres unmarked) [Compound 130] | – | – | + (Indicates inhibition greater than . . . 50%) | + (Indicates inhibition greater than . . . 50%) | –
13 | COCC1OC(OCCc2ccccc2)C(NC(=O)CCN)C(OCc2ccc(Cl)cc2)C1O (centres unmarked) [Compound 268] | + (Indicates inhibition greater than . . . 50%) | + (Indicates inhibition greater than . . . 50%) | – | – | –
14 | COCC1OC(OCc2ccccc2)C(NC(=O)CCN)C(OCc2ccc(-c3ccccc3)cc2)C1O (centres unmarked) [Compound 227] | + (Indicates inhibition greater than . . . 50%) | + (Indicates inhibition greater than . . . 50%) | – | – | –
15 | COC[C@H]1OC(OCc2ccc(-c3ccccc3)cc2)[C@H](NC(=O)CNC(=N)N)[C@@H](OCc2ccc(-c3ccccc3)cc2)[C@@H]1O (some centres unmarked) [Compound 1] | – | – | + (Indicates inhibition greater than . . . 50%) | + (Indicates inhibition greater than . . . 50%) | –
16 | COCC1OC(OCCc2ccccc2)C(NC(=O)CCNC(=N)N)C(OCc2ccc(-c3ccccc3)cc2)C1O (centres unmarked) [Compound 275] | + (Indicates inhibition greater than . . . 50%) | + (Indicates inhibition greater than . . . 50%) | – | – | –
17 | COCC1OC(OCc2ccc(Cl)cc2)C(NC(=O)CNC(=N)N)C(OCc2ccccc2)C1O (centres unmarked) [Compound 237] | + (Indicates inhibition greater than . . . 50%) | + (Indicates inhibition greater than . . . 50%) | – | – | –
18 | COCC1OC(OCCc2ccccc2)C(NC(=O)CCCNC(=N)N)C(OCc2ccc3ccccc3c2)C1O (centres unmarked) [Compound 283] | + (Indicates inhibition greater than . . . 50%) | + (Indicates inhibition greater than . . . 50%) | – | – | –
19 | COC[C@H]1OC(OCc2ccc(-c3ccccc3)cc2)[C@H](NC(=O)CCCN)[C@@H](OCc2ccc(-c3ccccc3)cc2)[C@@H]1O (some centres unmarked) [Compound 53] | – | – | + (Indicates inhibition greater than . . . 50%) | + (Indicates inhibition greater than . . . 50%) | –

Row | SMILES | MC4 inhibition at 10 micromolar (MC4; [1]) | SSTS inhibition at 10 micromolar (SST5; [1]) | MC4 inhibition at 10 micromolar (MC4; [2]) | SST5 inhibition at 10 micromolar (SST5; 10 micromolar compound) | SSTS inhibition at 10 micromolar (SST5; 10 micromolar compound, Example Library 8)
20 | COCC1OC(OCc2ccc3ccccc3c2)C(NC(=O)CCCNC(=N)N)C(OCc2ccc(Cl)cc2)C1O (centres unmarked) [Compound 295] | + (Indicates inhibition greater than . . . 50%) | + (Indicates inhibition greater than . . . 50%) | – | – | –
21 | CSC1OC(COCc2ccc(Cl)cc2)C(O)C(OCc2ccc3ccccc3c2)C1NC(=O)CNC(=N)N (centres unmarked) [Compound 198] | – | – | + (Indicates inhibition greater than . . . 50%) | + (Indicates inhibition greater than . . . 50%) | –
22 | COCC1OC(OCc2ccc(Cl)cc2)C(NC(=O)CCCN)C(OCc2ccc(-c3ccccc3)cc2)C1O (centres unmarked) [Compound 252] | + (Indicates inhibition greater than . . . 50%) | + (Indicates inhibition greater than . . . 50%) | – | – | –
23 | CSC1OC(COC(=O)Cc2ccccc2)C(O)C(OCc2cccc(N)c2)C1NCc1ccc(Cl)cc1 (centres unmarked) [Compound 313] | – | – | + (Indicates inhibition greater than . . . 50%) | + (Indicates inhibition greater than . . . 50%) | –
24 | CSC1OC(COCc2ccc3ccccc3c2)C(O)C(OCc2ccccc2)C1NC(=O)CCCNC(=N)N (centres unmarked) [Compound 142] | – | – | + (Indicates inhibition greater than . . . 50%) | + (Indicates inhibition greater than . . . 50%) | –
25 | COCC1OC(OCc2ccc3ccccc3c2)C(NC(=O)CCNC(=N)N)C(OCc2ccc(-c3ccccc3)cc2)C1O (centres unmarked) [Compound 299] | + (Indicates inhibition greater than . . . 50%) | + (Indicates inhibition greater than . . . 50%) | – | – | –
26 | CSC1OC(COCc2ccc(Cl)cc2)C(O)C(OCc2ccccc2)C1NC(=O)CCCN (centres unmarked) [Compound 129] | – | – | + (Indicates inhibition greater than . . . 50%) | + (Indicates inhibition greater than . . . 50%) | –
27 | CSC1OC(COCc2ccccc2)C(O)C(OCc2ccc(-c3ccccc3)cc2)C1NC(=O)CCCN (centres unmarked) [Compound 171] | – | – | + (Indicates inhibition greater than . . . 50%) | + (Indicates inhibition greater than . . . 50%) | –
28 | COCC1OC(OCc2ccc3ccccc3c2)C(NC(=O)CCCN)C(OCc2ccc(Cl)cc2)C1O (centres unmarked) [Compound 294] | + (Indicates inhibition greater than . . . 50%) | + (Indicates inhibition greater than . . . 50%) | – | – | –
29 | CO[C@H]1[C@H](O)[C@@H](COCc2ccc3ccccc3c2)OC(OCCc2ccccc2)[C@@H]1NC(=O)CCCN (some centres unmarked) [Compound 102] | – | – | + (Indicates inhibition greater than . . . 50%) | + (Indicates inhibition greater than . . . 50%) | –
30 | COCC1OC(OCc2ccccc2)C(NC(=O)CCCN)C(OCc2ccc(Cl)cc2)C1O (centres unmarked) [Compound 223] | + (Indicates inhibition greater than . . . 50%) | + (Indicates inhibition greater than . . . 50%) | – | – | –
31 | CO[C@H]1[C@H](O)[C@@H](COCc2ccc(Cl)cc2)OC(OCCc2ccccc2)[C@@H]1NC(=O)CCCN (some centres unmarked) [Compound 106] | – | – | + (Indicates inhibition greater than . . . 50%) | + (Indicates inhibition greater than . . . 50%) | –
32 | COCC1OC(OCc2ccccc2)C(NC(=O)CNC(=N)N)C(OCc2ccccc2)C1O (centres unmarked) [Compound 214] | + (Indicates inhibition greater than . . . 50%) | + (Indicates inhibition greater than . . . 50%) | – | – | –
33 | COC1C(O)C(COCc2ccc3ccccc3c2)OC(OCc2ccc(Cl)cc2)C1NC(=O)CNC(=N)N (centres unmarked) [Compound 87] | – | – | + (Indicates inhibition greater than . . . 50%) | + (Indicates inhibition greater than . . . 50%) | –
34 | COC1C(O)C(COCc2ccc3ccccc3c2)OC(OCc2ccc(-c3ccccc3)cc2)C1NC(=O)CCCN (centres unmarked) [Compound 61] | – | – | + (Indicates inhibition greater than . . . 50%) | + (Indicates inhibition greater than . . . 50%) | –
35 | CSC1O[C@H](COCc2cccc(N)c2)[C@@H](O)[C@H](OCc2ccc(Cl)cc2)[C@H]1NC(=O)c1ccccc1 (some centres unmarked) [Compound 338] | – | – | + (Indicates inhibition greater than . . . 50%) | – | + (Indicates inhibition greater than . . . 50%)
36 | CSC1OC(COCc2cccc(N)c2)C(O)C(OCc2ccc(Cl)cc2)C1NC(=O)c1ccccc1 (centres unmarked) [Compound 331] | – | – | + (Indicates inhibition greater than . . . 50%) | + (Indicates inhibition greater than . . . 50%) | –
37 | COC1C(O)C(COCc2ccc3ccccc3c2)OC(OCc2ccc(Cl)cc2)C1NC(=O)CCCNC(=N)N (centres unmarked) [Compound 90] | – | – | + (Indicates inhibition greater than . . . 50%) | + (Indicates inhibition greater than . . . 50%) | –
